# Patent US20090042289A1, “Preservation of Cells” (University of Wales, Cardiff, priority 2000, published 2009)
# What was measured:
# in vitro = conditions: rat
# Description: (§1) Data is expressed as a percentage of the number of viable cells (as determined by LDH activity) in the non-hydrolysed gelatin sandwich at each time point. Native Gel/cell slurry (-{acute over (◯)}-) wherein hepatocytes suspended in a gel of non-hydrolysed gelatin; Pre-adhered hepatocytes with Native gel blanket (-▪-) wherein hepatocytes allowed to adhere to the substratum before being blanketed by gel of non-hydrolysed gelatin; hydrolysed gelatin slurry (-x-) wherein hepatocytes suspended in a gel of non-hydrolysed gelatin hydrolysed at 95° C.; 75 bloom slurry (--) wherein hepatocytes suspended in a gel composed of 75 bloom gelatin (commercially available from Sigma); Pre-attached hepatocytes with Hydrolysed gel blanket (-◯-) wherein hepatocytes allowed to adhere to the substratum before being blanketed by a gel of hydrolysed gelatin.
# Description for hepatocytes: as §1
smiles,measurement,setting,value
OCC(O)CO [glycerol],cytotoxicity to hepatocytes during preservation,hepatocytes,cytotoxic
same,"viability at 7 days, 0.5 M",in vitro,10%
